Source: US20220306695A1, “COMPSTATIN ANALOGUES AND THEIR MEDICAL USES” (priority 2019, published 2022)
Where two headings read alike, the source gives them in different places. Starred links: 1 amine or outer side, 2 acyl side, 3 side chain; linkers in the order of their positions; H or OH if unused. Positions of bridges follow the written chain, without caps; N, C: chain ends. Non-standard residues stand in square brackets, D forms with d. Residues, ends and D or L forms follow the SMILES beside them. Groups on a side chain read outwards from the residue. *: point of attachment. Trp(1-Me) = Cn1cc(C[C@H](N)C(=O)O)c2ccccc21; Abu(4-yl) = O=C([C@H](CC[*:3])N[*:1])[*:2]; C18 diacid = O=C(O)CCCCCCCCCCCCCCCCC(=O)*; C16 diacid = O=C(O)CCCCCCCCCCCCCCC(=O)*; γGlu = O=C(O)[C@H](CCC(=O)[*:2])N[*:1]; AEEA = NCCOCCOCC(=O)O; Sar = CNCC(=O)O

What was measured:
[1] = test system: classical complement pathway; assay: In vitro haemolysis assay (inhibition of classical complement pathway); format: cell-based, human; conditions: Table 3; human serum, sensitized sheep red blood cells; read-out: IC50[nM], in vitro analysis of inhibition of hemolysis
How it was run: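 Serially diluted compound (9 points) was preincubated 15 min at room temperature with diluted human serum, titrated per batch to give 70-90% maximal haemolysis, in Tris/casein buffer pH 7.4 with Mg2+/Ca2+. Antibody-sensitized sheep erythrocytes were then added for 30 min at 37° C, and the reaction was stopped with EDTA. Haemolysis was read at A405, with IC50 from 4PL fit.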

[2] = format: physicochemical; conditions: 50 mg/mL peptide; for Covalent oligomer content after 14 days 40° C. (%), F1 / Purity after 14 days 40° C. (%), F1: F1: 20 mM phosphate pH 5.5; for Covalent oligomer content after 14 days 40° C. (%), F1 / Covalent oligomer content after 14 days 40° C. (%), F2: denaturing SEC; for Purity after 14 days 40° C. (%), F1 / Purity after 14 days 40° C. (%), F2 / Purity after 14 days 40° C. (%), F3: normalized purity (HPLC)
Procedure: Chemical stability of compstatin analogues with cystathionine or disulfide bridge. Stability was assessed in three formulations at 50 mg/mL peptide, F1:20 mM phosphate pH 5.5, F2:20 mM phosphate pH 6.5 and F3:20 mM phosphate pH 7.5. The formulations were prepared by direct dissolution of peptide from lyophilized portions in the respective formulations. pH was adjusted to target with 1 M NaOH and 1 M HCl. Chemical stability was assessed under accelerated conditions (14 days, 40° C.) and evaluated as change in purity by reverse phase HPLC, and change in covalent oligomer content by denaturing SEC. The formulations were placed at 40° C. with analysis points at T=0, 7 and 14 days. On each time point a small volume was extracted and diluted to 2 mg/mL and tested by reverse phase HPLC and denaturing SEC. Purity was assessed by reverse phase HPLC using an Ultimate 3000 system for binary gradient application equipped with a Kinetix C18 column (cat. no. 00F-4462-Y0, 150 mm×3 mm, 2.6 μm) run at 0.5 ml/min with a gradient of buffer A (0.3% TFA, aq.) and buffer B (0.3% TFA, 90% MeCN, aq.) gradient from 40% B to 70% B over 20 min. Detection was done using a diode array detector set to 220 nm. Covalent oligomer formation was assessed by denaturing SEC (size exclusion chromatography) using an Ultimate 3000 system equipped with a TSKgel SuperSW 2000 column (cat. no. 818674, 300 mm×3 mm, 4 μm) run at 0.5 ml/min with isocratic flow of buffer A (0.1% TFA, 45% MeCN, aq.), 10 min. Detection was done using a diode array detector set to 215 nm. Compounds 126 and 156 were carefully weighed out and dissolved in formulations F1, F2 and F3 to a target concentration of 50 mg/mL. Once visually dissolved, concentration was confirmed by absorbance at 280 nm, and samples were placed in stability at 40° C. Samples for analysis were extracted on T=0, 7 and 14 days from a 40° C. climate chamber. The extracted volume was dissolved 1:25 (final concentration: 2 mg/mL) in 20 mM phosphate pH 5.5, 6.5 or 7.5 and measured by reverse phase HPLC and denaturing SEC by injection of 0.4 μL (column load […]). The resulting chromatograms were integrated to determine chemical purity by reverse phase HPLC and covalent oligomer content by denaturing SEC.

[3] = target: Human C3 (human, UniProt P01024 23-1663); assay: cell-based or functional assay
Human C3, sequence (P01024 23-1663 limits assumed): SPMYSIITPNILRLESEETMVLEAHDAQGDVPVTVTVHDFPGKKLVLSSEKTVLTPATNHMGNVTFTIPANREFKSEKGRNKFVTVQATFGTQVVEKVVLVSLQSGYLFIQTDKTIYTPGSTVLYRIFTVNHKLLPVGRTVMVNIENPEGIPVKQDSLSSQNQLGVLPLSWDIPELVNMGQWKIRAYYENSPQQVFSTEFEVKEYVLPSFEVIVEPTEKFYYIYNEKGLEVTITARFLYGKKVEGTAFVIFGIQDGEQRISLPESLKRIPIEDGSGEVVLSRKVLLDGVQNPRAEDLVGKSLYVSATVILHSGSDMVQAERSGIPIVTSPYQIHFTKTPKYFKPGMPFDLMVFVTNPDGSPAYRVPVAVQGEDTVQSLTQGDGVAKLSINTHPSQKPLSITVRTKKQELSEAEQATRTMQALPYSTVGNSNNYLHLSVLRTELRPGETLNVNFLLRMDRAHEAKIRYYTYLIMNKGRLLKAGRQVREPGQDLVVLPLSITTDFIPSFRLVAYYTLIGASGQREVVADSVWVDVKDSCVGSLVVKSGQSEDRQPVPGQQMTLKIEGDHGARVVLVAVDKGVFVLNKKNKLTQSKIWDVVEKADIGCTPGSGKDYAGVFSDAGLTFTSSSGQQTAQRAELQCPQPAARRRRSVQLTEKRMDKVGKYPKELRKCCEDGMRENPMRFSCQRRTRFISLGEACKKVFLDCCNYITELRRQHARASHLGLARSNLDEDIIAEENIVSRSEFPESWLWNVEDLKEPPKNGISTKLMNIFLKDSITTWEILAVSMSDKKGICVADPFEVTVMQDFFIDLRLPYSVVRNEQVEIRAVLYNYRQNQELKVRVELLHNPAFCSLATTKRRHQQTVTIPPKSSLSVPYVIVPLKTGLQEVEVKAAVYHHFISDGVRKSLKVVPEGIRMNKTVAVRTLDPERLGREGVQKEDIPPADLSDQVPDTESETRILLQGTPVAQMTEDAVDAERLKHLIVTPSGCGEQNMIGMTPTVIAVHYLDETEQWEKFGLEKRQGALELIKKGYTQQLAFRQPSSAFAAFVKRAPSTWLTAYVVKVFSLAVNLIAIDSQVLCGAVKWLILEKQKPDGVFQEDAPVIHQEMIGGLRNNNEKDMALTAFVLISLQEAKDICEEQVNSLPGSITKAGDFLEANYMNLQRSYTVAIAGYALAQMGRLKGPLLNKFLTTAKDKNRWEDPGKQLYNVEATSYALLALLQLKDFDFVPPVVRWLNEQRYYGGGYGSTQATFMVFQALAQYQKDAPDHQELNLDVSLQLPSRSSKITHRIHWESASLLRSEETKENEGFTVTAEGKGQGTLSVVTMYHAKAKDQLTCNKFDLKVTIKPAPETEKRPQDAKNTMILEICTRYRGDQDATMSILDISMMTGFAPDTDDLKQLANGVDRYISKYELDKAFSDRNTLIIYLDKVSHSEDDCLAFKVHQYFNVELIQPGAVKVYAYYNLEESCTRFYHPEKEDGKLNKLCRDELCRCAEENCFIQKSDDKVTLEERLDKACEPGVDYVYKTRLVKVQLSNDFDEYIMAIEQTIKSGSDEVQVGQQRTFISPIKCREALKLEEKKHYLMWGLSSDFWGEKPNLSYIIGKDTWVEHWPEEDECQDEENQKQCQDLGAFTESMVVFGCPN

Molecule: CC[C@H](C)[C@@H]1NC(=O)[C@@H](NC(=O)[C@H](Cc2ccccc2)NC(=O)[C@H](CCC(=O)O)NC(=O)[C@H](CO)NC(C)=O)CSCC[C@@H](C(=O)N(C)CC(=O)N[C@@H](CCC(=O)O)C(=O)NCC(=O)N[C@@H](CCC(=O)O)C(=O)NCCOCCOCC(=O)NCCOCCOCC(=O)N[C@@H](CCCCNC(=O)CC[C@H](NC(=O)CNC(=O)CC[C@H](NC(=O)CCCCCCCCCCCCCCCCC(=O)O)C(=O)O)C(=O)O)C(N)=O)NC(=O)[C@H](CCCNC(=N)N)NC(=O)[C@H](Cc2c[nH]cn2)NC(=O)[C@H](CCC(=O)O)NC(=O)CNC(=O)[C@H](Cc2c[nH]c3ccccc23)NC(=O)[C@H](CCC(=O)O)NC(=O)[C@H](CCC(N)=O)NC(=O)[C@H](Cc2cn(C)c3ccccc23)NC1=O [Compound 153] (Ac-SEFCI[Trp(1-Me)]QEWGEHR[Abu(4-yl)][Sar]EGE[AEEA][AEEA]K([γGlu-Gly-γGlu-C18 diacid])-NH2; thioether 4-14)
- IC50 [1]: < 100 nM
- Covalent oligomer content after 14 days 40° C. (%), F1 [2]: 0.7%
- Purity after 14 days 40° C. (%), F1 [2]: 97%
- Covalent oligomer content after 14 days 40° C. (%), F2 ([2]; F2: 20 mM phosphate pH 6.5): 0.5%
- Purity after 14 days 40° C. (%), F2 ([2]; F2: 20 mM phosphate pH 6.5): 99%
- Covalent oligomer content after 14 days 40° C. (%), F2 ([2]; F3: 20 mM phosphate pH 7.5): 0.3%
- Purity after 14 days 40° C. (%), F3 ([2]; F3: 20 mM phosphate pH 7.5): 99%

Molecule: CC[C@H](C)[C@@H]1NC(=O)[C@@H](NC(=O)[C@H](Cc2ccccc2)NC(=O)[C@H](CCC(=O)O)NC(=O)[C@H](CO)NC(C)=O)CSSC[C@@H](C(=O)N[C@H](C(=O)N[C@@H](CCC(=O)O)C(=O)NCC(=O)N[C@@H](CCC(=O)O)C(=O)NCCOCCOCC(=O)NCCOCCOCC(=O)N[C@@H](CCCCNC(=O)CC[C@H](NC(=O)CNC(=O)CC[C@H](NC(=O)CCCCCCCCCCCCCCCCC(=O)O)C(=O)O)C(=O)O)C(N)=O)[C@@H](C)O)NC(=O)[C@H](CCCNC(=N)N)NC(=O)[C@H](Cc2c[nH]cn2)NC(=O)[C@H](CCC(=O)O)NC(=O)CNC(=O)[C@H](Cc2c[nH]c3ccccc23)NC(=O)[C@H](CC(=O)O)NC(=O)[C@H](CCC(N)=O)NC(=O)[C@H](Cc2cn(C)c3ccccc23)NC1=O [Compound 126] (Ac-SEFCI[Trp(1-Me)]QDWGEHRCTEGE[AEEA][AEEA]K([γGlu-Gly-γGlu-C18 diacid])-NH2; disulfide 4-14)
- IC50 [1]: < 100 nM
- Covalent oligomer content after 14 days 40° C. (%), F1 [2]: 66%
- Purity after 14 days 40° C. (%), F1 [2]: 45%
- Covalent oligomer content after 14 days 40° C. (%), F2 ([2]; F2: 20 mM phosphate pH 6.5): 54%
- Purity after 14 days 40° C. (%), F2 ([2]; F2: 20 mM phosphate pH 6.5): 47%
- Covalent oligomer content after 14 days 40° C. (%), F2 ([2]; F3: 20 mM phosphate pH 7.5): 41%
- Purity after 14 days 40° C. (%), F3 ([2]; F3: 20 mM phosphate pH 7.5): 57%

B1: Compound 66 (peptide)
peptide: Ac-YCIWQDWGEHRCTGAES-NH2
modifications: disulfide 2-12
SMILES: CC[C@H](C)[C@@H]1NC(=O)[C@@H](NC(=O)[C@H](Cc2ccc(O)cc2)NC(C)=O)CSSC[C@@H](C(=O)N[C@H](C(=O)NCC(=O)N[C@@H](C)C(=O)N[C@@H](CCC(=O)O)C(=O)N[C@@H](CO)C(N)=O)[C@@H](C)O)NC(=O)[C@H](CCCNC(=N)N)NC(=O)[C@H](Cc2c[nH]cn2)NC(=O)[C@H](CCC(=O)O)NC(=O)CNC(=O)[C@H](Cc2c[nH]c3ccccc23)NC(=O)[C@H](CC(=O)O)NC(=O)[C@H](CCC(N)=O)NC(=O)[C@H](Cc2c[nH]c3ccccc23)NC1=O
- IC50[nM], inhibition of hemolysis [3]: < 100 nM

B2: Compound 75 (peptide)
peptide: Ac-SEFCI[Trp(1-Me)]QDWGEHRC[Sar]EA-NH2
modifications: disulfide 4-14
SMILES: CC[C@H](C)[C@@H]1NC(=O)[C@@H](NC(=O)[C@H](Cc2ccccc2)NC(=O)[C@H](CCC(=O)O)NC(=O)[C@H](CO)NC(C)=O)CSSC[C@@H](C(=O)N(C)CC(=O)N[C@@H](CCC(=O)O)C(=O)N[C@@H](C)C(N)=O)NC(=O)[C@H](CCCNC(=N)N)NC(=O)[C@H](Cc2c[nH]cn2)NC(=O)[C@H](CCC(=O)O)NC(=O)CNC(=O)[C@H](Cc2c[nH]c3ccccc23)NC(=O)[C@H](CC(=O)O)NC(=O)[C@H](CCC(N)=O)NC(=O)[C@H](Cc2cn(C)c3ccccc23)NC1=O
- IC50[nM], inhibition of hemolysis [3]: < 100 nM

B3: Compound 82 (peptide)
peptide: Ac-SE[Sar]CI[Trp(1-Me)]QDWGEHRCTEA-NH2
modifications: disulfide 4-14
SMILES: CC[C@H](C)[C@@H]1NC(=O)[C@@H](NC(=O)CN(C)C(=O)[C@H](CCC(=O)O)NC(=O)[C@H](CO)NC(C)=O)CSSC[C@@H](C(=O)N[C@H](C(=O)N[C@@H](CCC(=O)O)C(=O)N[C@@H](C)C(N)=O)[C@@H](C)O)NC(=O)[C@H](CCCNC(=N)N)NC(=O)[C@H](Cc2c[nH]cn2)NC(=O)[C@H](CCC(=O)O)NC(=O)CNC(=O)[C@H](Cc2c[nH]c3ccccc23)NC(=O)[C@H](CC(=O)O)NC(=O)[C@H](CCC(N)=O)NC(=O)[C@H](Cc2cn(C)c3ccccc23)NC1=O
- IC50[nM], inhibition of hemolysis [3]: < 100 nM

B4: Compound 92 (peptide)
peptide: Ac-ICIWQDWGEHRCTEGK([γGlu-C16 diacid])-NH2
modifications: disulfide 2-12
SMILES: CC[C@H](C)[C@H](NC(C)=O)C(=O)N[C@H]1CSSC[C@@H](C(=O)N[C@H](C(=O)N[C@@H](CCC(=O)O)C(=O)NCC(=O)N[C@@H](CCCCNC(=O)CC[C@H](NC(=O)CCCCCCCCCCCCCCC(=O)O)C(=O)O)C(N)=O)[C@@H](C)O)NC(=O)[C@H](CCCNC(=N)N)NC(=O)[C@H](Cc2c[nH]cn2)NC(=O)[C@H](CCC(=O)O)NC(=O)CNC(=O)[C@H](Cc2c[nH]c3ccccc23)NC(=O)[C@H](CC(=O)O)NC(=O)[C@H](CCC(N)=O)NC(=O)[C@H](Cc2c[nH]c3ccccc23)NC(=O)[C@H]([C@@H](C)CC)NC1=O
- IC50[nM], inhibition of hemolysis [3]: < 1000 nM

B5: Compound 93 (peptide)
peptide: Ac-ICIWQDWGEHRCTEGK([AEEA-AEEA-γGlu-C16 diacid])-NH2
modifications: disulfide 2-12
SMILES: CC[C@H](C)[C@H](NC(C)=O)C(=O)N[C@H]1CSSC[C@@H](C(=O)N[C@H](C(=O)N[C@@H](CCC(=O)O)C(=O)NCC(=O)N[C@@H](CCCCNC(=O)COCCOCCNC(=O)COCCOCCNC(=O)CC[C@H](NC(=O)CCCCCCCCCCCCCCC(=O)O)C(=O)O)C(N)=O)[C@@H](C)O)NC(=O)[C@H](CCCNC(=N)N)NC(=O)[C@H](Cc2c[nH]cn2)NC(=O)[C@H](CCC(=O)O)NC(=O)CNC(=O)[C@H](Cc2c[nH]c3ccccc23)NC(=O)[C@H](CC(=O)O)NC(=O)[C@H](CCC(N)=O)NC(=O)[C@H](Cc2c[nH]c3ccccc23)NC(=O)[C@H]([C@@H](C)CC)NC1=O
- IC50[nM], inhibition of hemolysis [3]: < 500 nM
